Experiment [1] addresses T1, PDK1 (Homo sapiens (Human), UniProt O15530). Kind of experiment: PDK1 ATP Depletion Kinase Assay (Kinase-Glo luminescence). Particulars: PDKtide substrate, read-out: PDK1 Kinase assays (IC50, μM) Activity Assay. The format is biochemical. How it is done: Test compounds were diluted to desired concentrations in kinase reaction buffer and briefly incubated with human recombinant PDK1 kinase which is histidine-tagged (Invitrogen Corporation, Carlsbad, Calif.). The reaction was subsequently initiated by the addition of ATP and PDKtide substrate (Millipore Corporation, Billerica, Massachussetts). […] After an incubation of 60 minutes at room temperature, 10 μl of the Kinase-Glo reagent (Promega Corporation, Madison, Wis.) was added to each well and incubated for an additional 10 minutes. Luminescence was measured on an EnVision microplate reader (PerkinElmer). The amount of luminescence from each reaction is inversely correlated with PDK1 kinase activity. Percent inhibition and IC50 values can be calculated by comparing enzyme activity in drug-treated wells to the appropriate controls, e.g. vehicle control.
(§1) IC50 values are determined using GraphPad Prism 5 software. The data were entered as an X-Y plot into the software as percent inhibition for each concentration of the drug. The concentration values of the drug were log transformed and the nonlinear regression was carried out using the “sigmoidal dose-response (variable slope)” option within the GraphPad software to model the data and calculate IC50 values.
A general note: In Kinase-Glo more light means more ATP remaining.

Experiment [2] deals with T1, PDK1. Kind of experiment: Time resolved-FRET LanthaScreen Kinase Binding Assay. Particulars: TR-FRET Lanthascreen Kinase Binding Assay; read-out: PDK1 Kinase assays (IC50, μM) Binding Assay.
Source text: Binding of the tracer to the kinase is detected using a europium-labeled anti-tag antibody, which binds to the kinase of interest. […] Binding of an inhibitor to the kinase competes for binding with the tracer, resulting in a loss of FRET.
Activity of compounds was routinely assessed using a secondary assay as described herein. The secondary assay was a time resolved-FRET LanthaScreen Kinase Binding Assay (Invitrogen Corporation, Carlsbad, Calif.). This assay evaluates the ability of the test compound to compete with a fluorescently-labeled tracer molecule to bind in the ATP pocket of a kinase. The assay signal is generated when a Europium-conjugated anti-His tag antibody (Invitrogen) bound to the His-tagged kinase produces a TR-FRET signal with the tracer molecule bound in the ATP pocket of the kinase. […] After 60 minutes of incubation at room temperature, the TR-FRET signal was measured on an EnVision microplate reader.
as §1
In general terms: Time-resolved FRET reads energy transfer from a long-lived donor to a nearby acceptor.

For experiment [3], the target named is T1, PDK1. Kind of experiment: PDK1 fluorometric activity assay performed by Life Technologies. The format is biochemical. The conditions noted are these: fluorometric assay performed by Life Technologies (Table IV); read-out: PDK1 Kinase assays (IC50). How it is done: PDK1 biochemical activity was measured by a fluorometric assay performed by Life Technologies (Grand Island, N.Y.). The assay conditions for PDK1 are as follows. The 2×PDK1/Ser/Thr-07 mixture is prepared in 50 mM Tris pH 8.5, 0.01% BRIJ-35, 10 mM MgCl2, 1 mM EGTA, 0.02% NaN3.
The kinase specificity was measured using fluorometric assays performed by Life Technologies (Grand Island, N.Y.). Assay conditions vary for each kinase and are available from Life Technologies, Grand Island, NY. For example, the assay conditions for PDK1 are as follows. The 2×PDK1/Ser/Thr-07 mixture is prepared in 50 mM Tris pH 8.5, 0.01% BRIJ-35, 10 mM MgCl2, 1 mM EGTA, 0.02% NaN3.

The next experiment relates to AN3-CA cells. Kind of experiment: Cell viability assay (ATP-lite). It is filed as cell-based. Particulars: Homo sapiens; AN3-CA (PTEN and PIK3R1 mutations); read-out: Cell Viability IC50 AN3-CA. As for the experimental part:
(§2) AN3-CA (PTEN-deficient), RL95-2 (PTEN-deficient), and HEC-1A (PTEN-wild type) cells were plated in 45 μl of RPMI-1640 media supplemented with 10% FBS and 1% Pen/Strep at a density of 1000 cells per well in white 384-well plates. Cells were allowed to attach by incubation overnight at 37° C. and 5% CO2. Test compounds were diluted to 10× concentrations in RPMI-1640 media (containing 3% DMSO) and 5 μl 1 of these dilutions were added in triplicate to the appropriate wells containing the cells. The plates containing the drug-treated cells and appropriate controls were incubated for 96 hours. At the end of the incubation, 40 μl of ATP-lite (PerkinElmer, Inc., Waltham, Massachussetts) reagent were added to each well and luminescence signal was measured on an EnVision microplate reader.
Alternatively, AN3-CA, RL95-2, HEC-1A endometrial cancer cell lines were plated at a density of 2000 cells per well in a 96 well culture plate in 45 μl of cell culture media and incubated overnight. The following day, test compounds were added to the cells in 5 μl of serum-free media to generate final concentrations of 10, 3, 1, 0.3, 0.1, 0.03, 0.01, or 0.003 μM. Vehicle treated controls were also included and each condition was applied in quadruplicate. Following 96 hours of incubation, 35 μL of ATP-lite (PerkinElmer) reagent was added each well and allowed to react for 10 minutes. Plate was read on a Envision 2104 MultiLabel reader (PerkinElmer).
as §1

The next experiment has as its system HEC-1A cells. Put plainly: Cell viability assay (ATP-lite). The format is cell-based. Particulars: Homo sapiens; HEC-1A (PTEN-wild type); read-out: Cell Viability IC50 HEC-1A. How it is done:
as §2
(§3) Alternatively, AN3-CA, RL95-2, HEC-1A endometrial cancer cell lines were plated at a density of 2000 cells per well in a 96 well culture plate in 45 μl of cell culture media and incubated overnight. […] Vehicle treated controls were also included and each condition was applied in quadruplicate. Following 96 hours of incubation, 35 μL of ATP-lite (PerkinElmer) reagent was added each well and allowed to react for 10 minutes. Plate was read on a Envision 2104 MultiLabel reader (PerkinElmer).
as §1

The subject of the next experiment is RL95-2 cells. Kind of experiment: Cell viability assay (ATP-lite). It is filed as cell-based. Particulars: Homo sapiens; RL95-2 (PTEN mutation); read-out: Cell Viability IC50 RL95-2. As for the experimental part: as §2, §3, §1

The structures appear in SMILES notation.

Broadly, the IC50 is the concentration that inhibits the measured activity by half.

T1 sequence (O15530 whole entry): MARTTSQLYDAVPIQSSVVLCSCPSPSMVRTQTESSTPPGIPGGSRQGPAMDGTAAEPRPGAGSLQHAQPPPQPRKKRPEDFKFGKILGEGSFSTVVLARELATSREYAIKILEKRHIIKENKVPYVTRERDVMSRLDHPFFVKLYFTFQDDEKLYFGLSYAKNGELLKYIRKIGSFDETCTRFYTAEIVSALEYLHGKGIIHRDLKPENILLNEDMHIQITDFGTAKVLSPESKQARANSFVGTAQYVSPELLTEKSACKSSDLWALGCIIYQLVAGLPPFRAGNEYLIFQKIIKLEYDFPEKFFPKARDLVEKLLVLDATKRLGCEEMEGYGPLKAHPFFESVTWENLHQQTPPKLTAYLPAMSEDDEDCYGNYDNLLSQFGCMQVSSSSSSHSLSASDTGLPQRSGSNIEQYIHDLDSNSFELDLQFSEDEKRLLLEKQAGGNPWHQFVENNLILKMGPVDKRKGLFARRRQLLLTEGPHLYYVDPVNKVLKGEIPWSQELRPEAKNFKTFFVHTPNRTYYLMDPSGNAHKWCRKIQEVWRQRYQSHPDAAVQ

In the case of `O=C(Nc1ccc2[nH]nc(-c3nc4cc(N5CCOCC5)ccc4[nH]3)c2c1)C1CC1` [Compound 3], the IC50 at PDK1 [1] stood at 0.283 µM; at PDK1 [2], 0.229 µM; on PDK1 [3], 0.23 µM.

For `O=C(Nc1ccc2[nH]nc(-c3nc4cc(N5CCOCC5)ccc4[nH]3)c2c1)C1CCC(F)(F)CC1` [Compound 4], the concentration for half-maximal inhibition (IC50) was 0.304 µM on PDK1 [1], 0.265 µM on PDK1 [2] and 0.265 µM on PDK1 [3].

In the case of `CC1CCN(c2ccc3[nH]c(-c4n[nH]c5ccc(NC(=O)C6CC6(F)F)cc45)nc3c2)CC1` (centres unmarked) [Compound 5], the IC50 at PDK1 [1] and on PDK1 [3] was 0.78 µM throughout.

Turning to `O=C(Nc1ccc2[nH]nc(-c3nc4ccccc4[nH]3)c2c1)C1CCC(F)(F)CC1` [Compound 6], the IC50 stood at 1.5 µM at PDK1 [1]; 0.41 µM on PDK1 [2]; 0.41 µM on PDK1 [3]; 2.07 µM in the experiment on AN3-CA cells; 9.65 µM with HEC-1A cells; 2.3 µM with RL95-2 cells.

Take `O=C(Nc1ccc2[nH]nc(-c3nc4ccccc4[nH]3)c2c1)C1CC1` [Compound 7]: the values for the IC50 at PDK1 [1], at PDK1 [2] and at PDK1 [3] were 1.74 µM, 1.23 µM and 1.23 µM, respectively.

Take `O=C(Nc1ccc2[nH]nc(-c3nc4ccccc4[nH]3)c2c1)C1CC1(F)F` (centres unmarked) [Compound 8]: the IC50 turned out to be 1.94 µM on PDK1 [1]; 0.28 µM on PDK1 [2]; 0.28 µM on PDK1 [3]; 0.33 µM in the experiment with AN3-CA cells; 14.8 µM in the experiment with HEC-1A cells; 6.97 µM with RL95-2 cells.

Consider `O=C(Nc1ccc2[nH]nc(-c3nc4cc(CN5CCOCC5)ccc4[nH]3)c2c1)C1CC1(F)F` (centres unmarked) [Compound 9], for which the IC50 on PDK1 [1] was 3.75 µM; on PDK1 [2], 1.22 µM; at PDK1 [3] it was 1.22 µM; in the experiment on AN3-CA cells, 0.443 µM; in the experiment with HEC-1A cells, 18.4 µM; with RL95-2 cells, 3.22 µM.

For `O=C(Nc1cccc2[nH]nc(-c3nc4ccc(N5CCOCC5)cc4[nH]3)c12)C1CC1(F)F` (centres unmarked) [Compound 10], the IC50 on PDK1 [1] is 4.4 µM; at PDK1 [2], 0.385 µM; at PDK1 [3] it was 0.385 µM.

With `Brc1ccc2[nH]nc(-c3nc4ccccc4[nH]3)c2c1` [Compound 11], the IC50 on PDK1 [1] amounted to 10.9 µM; with AN3-CA cells, 12.1 µM; in the experiment on HEC-1A cells it was 29.5 µM; in the experiment with RL95-2 cells it was 11.5 µM.

With `O=C(Nc1ccc2[nH]nc(-c3nc4ccccc4[nH]3)c2c1)NC1CC1` [Compound 12], the IC50 at PDK1 [1] was determined as 11.6 µM; on PDK1 [2], 0.92 µM; on PDK1 [3] it was 0.92 µM; in the experiment with AN3-CA cells, 18 µM; with HEC-1A cells, 12.7 µM; with RL95-2 cells, 17 µM.

As for `O=C(Nc1ccc2[nH]nc(-c3nc4ccccc4[nH]3)c2c1)c1cccc(F)c1` [Compound 13], the IC50 on PDK1 [1] was determined as 21.1 µM; at PDK1 [2] it was 8.79 µM; on PDK1 [3] it was 8.8 µM; with AN3-CA cells, 23.8 µM; in the experiment on HEC-1A cells it was 50.7 µM; in the experiment on RL95-2 cells, 15.3 µM.

Consider `CS(=O)(=O)c1cccc(-c2ccc3[nH]nc(-c4nc5ccccc5[nH]4)c3c2)c1` [Compound 14], for which the half-inhibitory concentration (IC50) at PDK1 [1] was determined as 23.7 µM; at PDK1 [2], 15.3 µM; on PDK1 [3], 15.3 µM; in the experiment on AN3-CA cells, 10.1 µM; with HEC-1A cells it was 20.1 µM; in the experiment with RL95-2 cells, 35.1 µM.

With `FC(F)(F)c1cccc(-c2ccc3[nH]nc(-c4nc5ccccc5[nH]4)c3c2)c1` [Compound 15], the IC50 at PDK1 [1] amounted to 55.7 µM; on PDK1 [2] it was 30.3 µM; at PDK1 [3] it was 30.3 µM.

As to `CC(C)(C#N)c1ccc(-c2ccc3[nH]nc(-c4nc5ccccc5[nH]4)c3c2)cc1` [Compound 16], the IC50 on PDK1 [1] came out at 58.5 µM; on PDK1 [2] it was 5.17 µM; on PDK1 [3], 5.2 µM; with AN3-CA cells it was 79.3 µM; with HEC-1A cells it was 28.7 µM; in the experiment with RL95-2 cells, 15.1 µM.

As for `O=C(Nc1ccc2[nH]nc(-c3nc4ccccc4[nH]3)c2c1)Nc1ccc(F)cc1F` [Compound 17], the IC50 at PDK1 [1] and at PDK1 [2] was over 100 µM each time.

As for `CN1CCC(C)(C(=O)Nc2ccc3[nH]nc(-c4nc5ccccc5[nH]4)c3c2)CC1` [Compound 18], the IC50 on PDK1 [1] was over 100 µM; with AN3-CA cells, 15.4 µM; in the experiment on HEC-1A cells it was 56.3 µM; with RL95-2 cells it was 6.24 µM.

Consider `O=C(Nc1ccc2[nH]nc(-c3nc4ccccc4[nH]3)c2c1)NC1CCCC1` [Compound 19], for which the IC50 at PDK1 [1] was over 100 µM.

Take `O=C(Nc1ccc2[nH]nc(-c3nc4ccccc4[nH]3)c2c1)C1CCN(c2ccncc2)CC1` [Compound 20]: the IC50 on PDK1 [1] and on PDK1 [2] was over 100 µM throughout.

Consider `O=C(Nc1ccc2c(-c3nc4ccc(N5CCOCC5)cc4[nH]3)n[nH]c2c1)C1CC1(F)F` (centres unmarked) [Compound 21], for which the IC50 on PDK1 [1] and at PDK1 [2] was over 100 µM each time.

For the origin of these results see US8569511B2, “Substituted 3-(1H-benzo[d]imidazol-2-yl)-1H-indazole analogs as inhibitors of the PDK1 kinase” (University of Utah Research Foundation, priority 2011, dated 2013).
